In US7939541B2, “Intermediates and a process employing the intermediates for the preparation of (3-trifluoromethylsulfonyl)-N-[4-methyl-3-(4-pyridin-3yl-pyrimidin-2ylamino)-phenyl]-benzamide” (Natco Pharma Limited, priority 2004, dated 2011):

Columns and labels:
[1] = test system: Baf3 murine leukemia cells Wt; experiment: Blast cell count in nude mice implanted with Baf3 Wt cells; type: in vivo; settings: Baf3Wt; Imatinib 10 mg/kg, AN019 20 mg/kg, AN024 20 mg/kg, oral gavage or ip from day 15; day 42
Excerpt: (§1) Blood smears were obtained via the tail vein or via the femoral vein every 6th day and blast cells counted and graphically represented.
(§2) Abdominal swelling and decrease in activity was monitored daily, blood smear taken via the tail vein or the femoral vein every 6th day and H&E stained as per standard protocols. 42 days after implantation, mice were sacrificed and spleens harvested.
(§3) Blood from tail vein or the femoral vein was taken every 6th day from Baf3 cell implanted mice until day 42.
(§4) Nude mice were intraperitoneally implanted with Baf3 mutant cells (wt, T315I, M351T or E255K). […] Blood was drawn from the femoral vein or tail vein every 6th day and blast cell count determined and graphically represented.

[2] = test system: Baf3 murine leukemia cells T315I; experiment: Blast cell count in nude mice implanted with Baf3 T315I cells; type: in vivo; settings: Baf3T315I; Imatinib 10 mg/kg, AN019 20 mg/kg, AN024 20 mg/kg, oral gavage or ip from day 15; day 42
Excerpt: as §1, §2, §3, §4

[3] = test system: Baf3 murine leukemia cells M351T; experiment: Blast cell count in nude mice implanted with Baf3 M351T cells; type: in vivo; settings: Baf3M351T; Imatinib 10 mg/kg, AN019 20 mg/kg, AN024 20 mg/kg, oral gavage or ip from day 15; day 42
Excerpt: as §1, §2, §3, §4

[4] = test system: Baf3 murine leukemia cells E255K; experiment: Blast cell count in nude mice implanted with Baf3 E255K cells; type: in vivo; settings: Baf3E255K (printed E225K); Imatinib 10 mg/kg, AN019 20 mg/kg, AN024 20 mg/kg, oral gavage or ip from day 15; day 42
Excerpt: as §1, §2, §3, §4

K562luc cells = experiment: Determination of drug temporal penetrance (Tp); type: in vivo, nude mice; settings: daily ip from day 15 to day 35, imaged till day 45; AN019 20 mg/kg, AN024 20 mg/kg, Imatinib 10 mg/kg
Procedure: The temporal penetrance was calculated applying the following equation, […].
P=photon counts at day ‘a’, day ‘ter’, or day ‘b’ where ‘a’ is the day when drug treatment was stopped and ‘ter’ is the day when the experiment was terminated and ‘b’ is the day where P is minimum after day a but before day ‘ter’.
n=number of animals alive when P was measured.
The animals were imaged at 6 day intervals post transplantation. […] Drug treatment was stopped on day 35 and animals were imaged till day 45, and calculated as described in methods.

ZR71 breast cancer cells = experiment: In vitro angiogenic assay, ZR-71 conditioned media on human dermal endothelial cells; type: cell-based; settings: ZR-71 cells, radiation status not specified
Procedure: (§5) The in vitro angiogenesis of 4910, 5310 and U87 glioma cells and MDAMB231 and ZR71 breast cancer cells in the presence of specified concentrations of compounds were determined as follows, cells (2×10^4/well) were seeded in 8-well chamber slides and were treated with various concentrations of test compounds. After a 24 h incubation period, the conditioned media was removed and added to a 4×10^4 human dermal endothelial cell (monolayer in 8-well chamber slides) and the human dermal endothelial cells were allowed to grow for 72 h. Cells were then fixed in 3.7% formaldehyde and stained with H&E and photographed.

[5] = test system: MDAMB231 breast cancer cells; experiment: In vitro angiogenic assay, MDA-MB-231 conditioned media on human dermal endothelial cells; type: cell-based; settings: MDA-MB-231 cells
Procedure: as §5

4910 glioma cells = experiment: In vitro angiogenic assay, 4910 conditioned media on human dermal endothelial cells; type: cell-based; settings: 4910 cells
Procedure: as §5

[6] = test system: AKT, ERK and Pi3k in ZR71 breast cancer cells; experiment: Western blot analysis, ZR71; type: cell-based; settings: 24 h
Procedure: (§6) Western blot analysis of 4910, 5310 and U87 glioma cells and MDAMB231 and ZR71 breast cancer cells in the presence of specified concentrations of compounds were assessed as per standard protocols. Cells were treated with AN019, AN024 or Temozolomide at the specified concentrations. 24 h after treatment, cells were collected and cell lysates extracted. Equal quantities of proteins were fractionated by SDS-PAGE. The fractionated proteins were blotted on to nylon membranes and immunoprobed for AKT, ERK and Pi3k. Breast cancer cell protein isolates were additionally immunoprobed for EGFR, ErbB1, ErbB2 and ErbB3.

[7] = test system: AKT, ERK and Pi3k in 5310 glioma cells; experiment: Western blot analysis, 5310; type: cell-based; settings: for PI3k levels: 24 h
Procedure: as §6

[8] = test system: pAKT and pERK in glioma and breast cancer cells; experiment: Western blot analysis of pAKT and pERK, cell line not stated; type: cell-based; settings: for pERK levels: both with and without radiation
Procedure: as §6

[9] = test system: K562 luciferase expressing cells; experiment: Leukemic survival study; type: in vivo, nude mice
Excerpt: K562 luciferase expressing cells were implanted intraperitoneally into nude mice; the mice were scanned using the xenogeny IVIS image station after ip injections of luciferin does determine implantations. Drug treatment was started as in previous studies day 15 after implantation. The animals were given treatment till day 42, after which drug treatment was stopped and survival of the animals determined as per the animal care regulations. […] Drug treatment was withdrawn on day 42 post implantation and survival of animals determined.

K562 = experiment: ED50 and therapeutic index in leukemic mice (K562); type: in vivo; settings: po, mice
[10] = test system: 4910 human glioma xenograft cells; experiment: Glioma radiation studies, intracranial tumours; type: in vivo, nude mice
Procedure: Nude mice were intracranially implanted with 4910 human glioma xenograft cells (1×10^6 cells) intracranially. Ten days after implantation mice were treated with AN019, AN024 or temozolomide with or without radiation (5 Gy/week). The experiment was terminated at day 40 post implantation.

5310 glioma cells = experiment: In vitro angiogenic assay, 5310 conditioned media on human dermal endothelial cells; type: cell-based; settings: 5310 cells
Procedure: as §5

Cc1ccc(NC(=O)c2cc(C(F)(F)F)cc(C(F)(F)F)c2)cc1Nc1nccc(-c2cccnc2)n1 [AN019]
blast cell count in blood smears [1]: complete regression of leukemic blast cells | blast cell count in blood smears [2]: significant decrease in blast cell count | blast cell count in blood smears [3]: significant decrease in blast cell count | blast cell count in blood smears [4]: significant decrease in blast cell count | temporal penetrance (Tp) (K562luc cells): 2.0 | inhibition of angiogenesis (ZR71 breast cancer cells): complete inhibition of angiogenesis | inhibition of angiogenesis ([5]; with radiation): slight inhibition | inhibition of angiogenesis (4910 glioma cells; with radiation): increase in angiogenic inhibition after radiation | AKT levels ([6]; ZR71, after radiation): enhanced after radiation | PI3k levels ([6]; ZR71, with radiation): absent | AKT levels ([6]; ZR71, without radiation): decrease in AKT levels | PI3k levels ([6]; ZR71, without radiation): absent | AKT expression levels ([7]; 5310, 24 h): decrease in AKT expression levels | PI3k levels ([7]; 5310, after radiation treatment): reappeared after radiation treatment | PI3k levels ([7]; 5310, without radiation): almost undetectable | pERK levels [8]: reduced significantly | blast cell count from blood smears after withdrawal of drug treatment ([9]; drug treatment withdrawn on day 42 (FIG. 6C)): showed effectiveness after withdrawal of drug treatment | animals showing no signs of leukemia / complete absence of leukemic symptoms ([9]; of 10 animals, treatment day 15 to day 42, then withdrawn, AN024 read on day 55): 7 animals | mortality (day post implantation) ([9]; treatment day 15 to day 42, then withdrawn): did not show any mortality | ED50 (po) Mice (K562): 11.5 mg/kg | intracranial tumours (size, appearance) ([10]; without radiation): tumours similar to AN024 treated animals | MTD Mice (Maximum Tolerated Dose): 500 mg/kg | LD50 (po) Mice (po): 1133 mg/kg

Cn1nnc2c(C(N)=O)ncn2c1=O [Temozolomide, reference compound]
inhibition of angiogenesis (ZR71 breast cancer cells): complete inhibition of angiogenesis | inhibition of angiogenesis ([5]; control condition (without radiation)): only a slight inhibition | inhibition of angiogenesis ([5]; with radiation): increase in inhibition after radiation | inhibition of angiogenesis (4910 glioma cells; with radiation): significant inhibition of angiogenesis | inhibition of angiogenesis (4910 glioma cells; without radiation): significant inhibition of angiogenesis | inhibition of angiogenesis (5310 glioma cells; after radiation treatment): angiogenesis was promoted | inhibition of angiogenesis (5310 glioma cells; control conditions (without radiation)): inhibition of angiogenesis was seen | pERK levels [8]: did not show any significant change | pAKT levels ([8]; with or without radiation): did not show any significant change | intracranial tumours (size, appearance) ([10]; with radiation (5 Gy/week)): further regression in tumor size | intracranial tumours (size, appearance) ([10]; without radiation): reduction in intracranial tumours
